Earlier results on three compounds are cited in paper PMC7953028 (Journal of Pesticide Science, 2021).

As a reminder, the log P is a log measure of how a compound divides between an organic and an aqueous phase.

Series [1] deals with DmMet/DmTai complex (Drosophila melanogaster, UniProt O44118).
Chain of DmMet/DmTai complex (O44118 1-716): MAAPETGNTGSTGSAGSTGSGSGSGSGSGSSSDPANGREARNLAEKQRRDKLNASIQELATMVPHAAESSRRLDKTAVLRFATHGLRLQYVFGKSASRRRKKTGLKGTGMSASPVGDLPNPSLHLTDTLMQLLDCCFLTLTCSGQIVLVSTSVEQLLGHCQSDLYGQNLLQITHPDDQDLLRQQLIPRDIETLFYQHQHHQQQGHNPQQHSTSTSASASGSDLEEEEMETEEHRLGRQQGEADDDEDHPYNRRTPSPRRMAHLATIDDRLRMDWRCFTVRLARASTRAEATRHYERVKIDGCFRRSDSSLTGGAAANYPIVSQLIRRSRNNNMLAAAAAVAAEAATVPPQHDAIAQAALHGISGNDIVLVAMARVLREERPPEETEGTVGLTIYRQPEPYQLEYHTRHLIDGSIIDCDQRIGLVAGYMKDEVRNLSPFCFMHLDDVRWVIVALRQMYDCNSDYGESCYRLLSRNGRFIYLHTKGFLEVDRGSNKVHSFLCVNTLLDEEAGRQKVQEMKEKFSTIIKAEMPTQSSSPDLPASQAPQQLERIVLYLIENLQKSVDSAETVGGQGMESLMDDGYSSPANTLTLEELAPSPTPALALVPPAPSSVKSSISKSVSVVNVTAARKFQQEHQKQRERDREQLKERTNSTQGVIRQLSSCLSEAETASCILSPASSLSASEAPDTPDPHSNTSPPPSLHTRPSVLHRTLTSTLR
Chain of DmMet/DmTai complex (Q9VLD9 1-2026 partner): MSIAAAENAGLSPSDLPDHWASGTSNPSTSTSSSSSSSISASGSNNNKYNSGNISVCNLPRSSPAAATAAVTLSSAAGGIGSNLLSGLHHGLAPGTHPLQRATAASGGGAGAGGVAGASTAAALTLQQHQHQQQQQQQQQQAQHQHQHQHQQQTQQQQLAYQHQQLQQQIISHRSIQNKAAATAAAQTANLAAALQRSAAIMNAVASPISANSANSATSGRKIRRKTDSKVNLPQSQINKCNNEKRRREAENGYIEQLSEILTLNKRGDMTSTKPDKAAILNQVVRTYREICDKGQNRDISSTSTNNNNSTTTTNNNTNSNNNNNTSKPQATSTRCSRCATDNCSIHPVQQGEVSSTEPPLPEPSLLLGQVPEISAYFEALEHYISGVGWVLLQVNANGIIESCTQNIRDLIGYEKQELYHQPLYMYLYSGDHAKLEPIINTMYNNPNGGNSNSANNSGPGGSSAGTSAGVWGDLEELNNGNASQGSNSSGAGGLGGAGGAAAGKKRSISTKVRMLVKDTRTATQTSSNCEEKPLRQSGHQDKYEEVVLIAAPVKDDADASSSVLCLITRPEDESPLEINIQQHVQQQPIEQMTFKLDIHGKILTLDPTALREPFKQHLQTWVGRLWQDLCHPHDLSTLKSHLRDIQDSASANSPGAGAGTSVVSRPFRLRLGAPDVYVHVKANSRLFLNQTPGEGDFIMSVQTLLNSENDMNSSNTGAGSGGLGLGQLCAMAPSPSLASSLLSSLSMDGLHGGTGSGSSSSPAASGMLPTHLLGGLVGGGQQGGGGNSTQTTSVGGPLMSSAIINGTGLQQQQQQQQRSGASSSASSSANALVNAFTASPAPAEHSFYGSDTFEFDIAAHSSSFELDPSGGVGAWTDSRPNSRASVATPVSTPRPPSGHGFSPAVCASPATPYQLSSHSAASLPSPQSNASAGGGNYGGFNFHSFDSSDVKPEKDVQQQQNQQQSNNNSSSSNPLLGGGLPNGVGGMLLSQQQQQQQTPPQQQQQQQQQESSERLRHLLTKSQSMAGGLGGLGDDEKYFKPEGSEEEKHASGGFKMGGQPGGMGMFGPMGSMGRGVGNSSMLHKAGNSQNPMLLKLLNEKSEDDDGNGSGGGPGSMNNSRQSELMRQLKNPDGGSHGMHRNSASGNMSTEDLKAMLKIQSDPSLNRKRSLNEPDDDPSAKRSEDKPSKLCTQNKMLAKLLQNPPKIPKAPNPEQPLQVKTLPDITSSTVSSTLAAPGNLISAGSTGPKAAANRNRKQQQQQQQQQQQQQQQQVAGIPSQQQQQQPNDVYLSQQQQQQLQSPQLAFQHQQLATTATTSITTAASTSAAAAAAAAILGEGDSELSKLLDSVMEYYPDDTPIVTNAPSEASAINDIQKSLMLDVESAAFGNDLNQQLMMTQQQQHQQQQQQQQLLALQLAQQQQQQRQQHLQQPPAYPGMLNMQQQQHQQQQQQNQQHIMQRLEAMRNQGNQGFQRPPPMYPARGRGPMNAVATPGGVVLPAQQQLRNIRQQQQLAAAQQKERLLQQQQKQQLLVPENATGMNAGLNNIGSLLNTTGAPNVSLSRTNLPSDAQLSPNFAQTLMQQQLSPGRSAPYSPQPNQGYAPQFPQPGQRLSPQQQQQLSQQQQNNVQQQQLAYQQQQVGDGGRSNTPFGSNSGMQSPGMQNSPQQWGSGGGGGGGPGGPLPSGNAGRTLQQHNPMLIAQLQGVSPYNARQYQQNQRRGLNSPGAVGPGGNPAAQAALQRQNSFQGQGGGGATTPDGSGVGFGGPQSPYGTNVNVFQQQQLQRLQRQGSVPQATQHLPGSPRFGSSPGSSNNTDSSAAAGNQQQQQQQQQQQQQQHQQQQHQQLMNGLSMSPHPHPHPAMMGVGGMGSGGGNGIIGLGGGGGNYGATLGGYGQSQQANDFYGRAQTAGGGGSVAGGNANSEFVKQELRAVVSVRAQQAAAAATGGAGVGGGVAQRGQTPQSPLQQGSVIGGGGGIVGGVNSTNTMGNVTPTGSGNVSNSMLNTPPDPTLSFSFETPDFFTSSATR

Turning to `C(#Cc1ccccn1)COc1ccc(Oc2ccccc2)cc1` [Compound 2, 2-[3-(4-phenoxyphenoxy)-1-propyn-1-yl)pyridine], the “activity in reporter system relative to natural JHs” value in series [1] is reported as “outperformed natural JHs”.
As for `COC(C)(C)CCC[C@H](C)C/C=C/C(C)=C/C(=O)OC(C)C` (racemic) [methoprene], the “log P” value is reported as 5.00.
`c1ccc(Oc2ccc(OCCOc3nccs3)cc2)cc1` [Compound 1, 2-[2-(4-phenoxyphenoxy)ethoxy]thiazole]: in series [1], the “activity in reporter system relative to natural JHs” value is on record as “outperformed natural JHs”.
